Earlier results as cited in US20080044468A1, “Processes For The Preparation Of Oral Dosage Formulations Of Modafinil” (priority 2002, published 2008).

Details: background statement

In the case of `NC(=O)C[S+]([O-])C(c1ccccc1)c1ccccc1` (stereo not shown) [modafinil], the Solubility in water is listed as “less than 1 mg/ml”.
